From ChEMBL document CHEMBL3885881, “DrugMatrix”

Organism: Rattus norvegicus
Assay: DrugMatrix - Regimen: Daily Repeat
Assay type: toxicity, organism-based, Sprague-Dawley
Design: regimen Daily Repeat, gender Male, age 6-8 weeks
Settings: in vivo, po, route oral GAVAGE, vehicle .5 % CMC; for ABSOLUTE BASOPHIL / ABSOLUTE EOSINOPHIL / ABSOLUTE LYMPHOCYTE / ABSOLUTE MONOCYTE / ABSOLUTE SEGMENTED NEUTROPHIL / BASOPHIL / EOSINOPHIL / ERYTHROCYTE COUNT / HEMATOCRIT / HEMOGLOBIN / LEUKOCYTE COUNT / LYMPHOCYTE / MEAN CORPUSCULAR HEMOGLOBIN / MEAN CORPUSCULAR HEMOGLOBIN CONCENTRATION / MEAN CORPUSCULAR VOLUME / MONOCYTE / NEUTROPHIL / NUCLEATED RED BLOOD CELLS / PLATELET COUNT: tissue Blood; for ALANINE AMINOTRANSFERASE / ALBUMIN / ALKALINE PHOSPHATASE / ASPARTATE AMINOTRANSFERASE / BLOOD UREA NITROGEN / CARBON DIOXIDE / CHLORIDE / CHOLESTEROL / CREATINE PHOSPHOKINASE / CREATININE / GLUCOSE / LACTATE DEHYDROGENASE / LIPASE / PHOSPHORUS / POTASSIUM / SODIUM / TOTAL BILIRUBIN / TOTAL PROTEIN / URIC ACID: tissue Plasma
[1] = 1 mg/kg, 120 h, dose level Low, time 5 day
[2] = 1300 mg/kg, 72 h, dose level High, time 3 day
[3] = 1300 mg/kg, 120 h, dose level High, time 5 day

With CCOc1nc2cccc(C(=O)O)c2n1Cc1ccc(-c2ccccc2-c2nnn[nH]2)cc1 the “ABSOLUTE BASOPHIL” value [1] was 0 CELLS/uL, the “ABSOLUTE EOSINOPHIL” value [1] was 0 CELLS/uL and the “ABSOLUTE LYMPHOCYTE” value [1] was 10713.33 CELLS/uL. The “ABSOLUTE MONOCYTE” value [1] was 81.33 CELLS/uL, the “ABSOLUTE SEGMENTED NEUTROPHIL” value [1] was 1172 CELLS/uL and the BASOPHIL [1] was 0%. The EOSINOPHIL [1] was 0%, the “ERYTHROCYTE COUNT” value [1] was 5.35 x10E6/uL and the HEMATOCRIT [1] was 34.57%. The HEMOGLOBIN [1] was 13.63 G/DL, the “LEUKOCYTE COUNT” value [1] was 11.97 x10E3/uL and the LYMPHOCYTE [1] was 89.67%. The “MEAN CORPUSCULAR HEMOGLOBIN” value [1] was 25.5 pg, the “MEAN CORPUSCULAR HEMOGLOBIN CONCENTRATION” value [1] was 39.43 G/DL and the “MEAN CORPUSCULAR VOLUME” value [1] was 64.67 fL. For the same compound, the MONOCYTE [1] was 0.67%, the NEUTROPHIL [1] was 9.67% and the “NUCLEATED RED BLOOD CELLS” value [1] was 0 /100WBC. For the same compound, the “PLATELET COUNT” value [1] was 1267.33 x10E3/uL, the “ALANINE AMINOTRANSFERASE” value [1] was 54 u/L and the ALBUMIN [1] was 4.1 G/DL. The “ALKALINE PHOSPHATASE” value [1] was 389.33 u/L, the “ASPARTATE AMINOTRANSFERASE” value [1] was 76.67 u/L and the “BLOOD UREA NITROGEN” value [1] was 18.33 mg/dL. For the same compound, the “CARBON DIOXIDE” value [1] was 27 mmol/L, the CHLORIDE [1] was 104.33 MEQ/L and the CHOLESTEROL [1] was 70.33 mg/dL. For the same compound, the “CREATINE PHOSPHOKINASE” value [1] was 187.67 u/L, the CREATININE [1] was 0.19 mg/dL and the GLUCOSE [1] was 161.33 mg/dL. For the same compound, the “LACTATE DEHYDROGENASE” value [1] was 120.67 u/L, the LIPASE [1] was 10.67 u/L and the PHOSPHORUS [1] was 12.2 mg/dL. The POTASSIUM [1] was 5.83 MEQ/L, the SODIUM [1] was 144.5 MEQ/L and the “TOTAL BILIRUBIN” value [1] was 0.2 mg/dL. The “TOTAL PROTEIN” value [1] was 5.97 G/DL, the “URIC ACID” value [1] was 1.6 mg/dL and the “ABSOLUTE BASOPHIL” value [2] was 0 CELLS/uL. For the same compound, the “ABSOLUTE EOSINOPHIL” value [2] was 27.67 CELLS/uL, the “ABSOLUTE LYMPHOCYTE” value [2] was 7595.67 CELLS/uL and the “ABSOLUTE MONOCYTE” value [2] was 24.33 CELLS/uL. For the same compound, the “ABSOLUTE SEGMENTED NEUTROPHIL” value [2] was 519 CELLS/uL, the BASOPHIL [2] was 0% and the EOSINOPHIL [2] was 0.33%. The “ERYTHROCYTE COUNT” value [2] was 5.08 x10E6/uL, the HEMATOCRIT [2] was 32.2% and the HEMOGLOBIN [2] was 13.13 G/DL. The “LEUKOCYTE COUNT” value [2] was 8.17 x10E3/uL, the LYMPHOCYTE [2] was 93% and the “MEAN CORPUSCULAR HEMOGLOBIN” value [2] was 25.87 pg. The “MEAN CORPUSCULAR HEMOGLOBIN CONCENTRATION” value [2] was 40.8 G/DL, the “MEAN CORPUSCULAR VOLUME” value [2] was 63.43 fL and the MONOCYTE [2] was 0.33%. For the same compound, the NEUTROPHIL [2] was 6.33%, the “NUCLEATED RED BLOOD CELLS” value [2] was 0 /100WBC and the “PLATELET COUNT” value [2] was 1033.67 x10E3/uL. For the same compound, the “ALANINE AMINOTRANSFERASE” value [2] was 54 u/L, the ALBUMIN [2] was 4.33 G/DL and the “ALKALINE PHOSPHATASE” value [2] was 351.67 u/L. The “ASPARTATE AMINOTRANSFERASE” value [2] was 93 u/L, the “BLOOD UREA NITROGEN” value [2] was 27.33 mg/dL and the “CARBON DIOXIDE” value [2] was 32 mmol/L. The CHLORIDE [2] was 102 MEQ/L, the CHOLESTEROL [2] was 73 mg/dL and the “CREATINE PHOSPHOKINASE” value [2] was 813.67 u/L. For the same compound, the CREATININE [2] was 0.48 mg/dL, the GLUCOSE [2] was 143 mg/dL and the “LACTATE DEHYDROGENASE” value [2] was 189.33 u/L. It also gave an LIPASE [2] of 10.33 u/L, a PHOSPHORUS [2] of 12.17 mg/dL and a POTASSIUM [2] of 7.02 MEQ/L. The SODIUM [2] was 143.6 MEQ/L, the “TOTAL BILIRUBIN” value [2] was 0.23 mg/dL and the “TOTAL PROTEIN” value [2] was 5.93 G/DL. The “URIC ACID” value [2] was 0.93 mg/dL, the “ABSOLUTE BASOPHIL” value [3] was 0 CELLS/uL and the “ABSOLUTE EOSINOPHIL” value [3] was 140.67 CELLS/uL. For the same compound, the “ABSOLUTE LYMPHOCYTE” value [3] was 14776.67 CELLS/uL, the “ABSOLUTE MONOCYTE” value [3] was 166.33 CELLS/uL and the “ABSOLUTE SEGMENTED NEUTROPHIL” value [3] was 1516.33 CELLS/uL. The BASOPHIL [3] was 0%, the EOSINOPHIL [3] was 0.67% and the “ERYTHROCYTE COUNT” value [3] was 5.54 x10E6/uL. The HEMATOCRIT [3] was 34.57%, the HEMOGLOBIN [3] was 13.97 G/DL and the “LEUKOCYTE COUNT” value [3] was 16.6 x10E3/uL. For the same compound, the LYMPHOCYTE [3] was 89.33%, the “MEAN CORPUSCULAR HEMOGLOBIN” value [3] was 25.23 pg and the “MEAN CORPUSCULAR HEMOGLOBIN CONCENTRATION” value [3] was 40.43 G/DL. The “MEAN CORPUSCULAR VOLUME” value [3] was 62.43 fL, the MONOCYTE [3] was 1% and the NEUTROPHIL [3] was 9%. The “NUCLEATED RED BLOOD CELLS” value [3] was 0 /100WBC, the “PLATELET COUNT” value [3] was 1315 x10E3/uL and the “ALANINE AMINOTRANSFERASE” value [3] was 42.33 u/L. For the same compound, the ALBUMIN [3] was 4.33 G/DL, the “ALKALINE PHOSPHATASE” value [3] was 320.67 u/L and the “ASPARTATE AMINOTRANSFERASE” value [3] was 108 u/L. For the same compound, the “BLOOD UREA NITROGEN” value [3] was 32.33 mg/dL, the “CARBON DIOXIDE” value [3] was 24.67 mmol/L and the CHLORIDE [3] was 105 MEQ/L. For the same compound, the CHOLESTEROL [3] was 61.67 mg/dL, the “CREATINE PHOSPHOKINASE” value [3] was 994.33 u/L and the CREATININE [3] was 0.19 mg/dL. For the same compound, the GLUCOSE [3] was 134 mg/dL, the “LACTATE DEHYDROGENASE” value [3] was 1053.67 u/L and the LIPASE [3] was 10 u/L. The PHOSPHORUS [3] was 11.2 mg/dL, the POTASSIUM [3] was 6.2 MEQ/L and the SODIUM [3] was 143.9 MEQ/L. The “TOTAL BILIRUBIN” value [3] was 0.2 mg/dL, the “TOTAL PROTEIN” value [3] was 6.2 G/DL and the “URIC ACID” value [3] was 1.13 mg/dL.
